Measurements published in patent US12098184B2, “G protein-coupled receptor (GPCR) ligand assay” (REGENTS OF THE UNIVERSITY OF MINNESOTA, priority 2017, dated 2024).
Bridge positions count the residues as written; N and C are the ends. Ends that are not written are not given here.

Tests used:
α1AR-Ipep sensor = conditions: bicine-mediated GPMVs, 100 μM
V1R-Qpep sensor = experiment: FRET measurement with GPMV-V1R-Qpep sensors; assay type: biochemical; conditions: bicine-mediated GPMVs, 100 nM

Compound	ΔFRET level with full agonist (α1AR-Ipep sensor)	ΔFRET level with full agonist (V1R-Qpep sensor)
CNC[C@H](O)c1ccc(O)c(O)c1 [epinephrine]	comparable to those obtained in the other experiments described herein	
[Arg^8]vasopressin (CYFQNCPRG-NH2; disulfide 1-6) [[Arg^8]vasopressin (AVP), full agonist of V1R]		comparable to those obtained in the other experiments described herein
